Source: PMC11751439, “Targeting SRSF1 improves cancer immunotherapy by dually acting on CD8^+T and tumor cells” (Signal Transduction and Targeted Therapy, 2025)

Legend:
[1] = molecular target: T1, SRSF1 (recombinant SRSF1; serine arginine-rich splicing factor 1) (Homo sapiens, UniProt Q07955); test: SPR (Biacore T100); type: binding
T1 construct: recombinant purified SRSF1; RRM1 domain targeted in screening

[2] = molecular target: T1, SRSF1 (recombinant SRSF1; serine arginine-rich splicing factor 1); test: SPR; type: binding; settings: purified SRSF1 variant; unit inferred, M taken from the wild-type value

T1 sequence (Q07955 2-248): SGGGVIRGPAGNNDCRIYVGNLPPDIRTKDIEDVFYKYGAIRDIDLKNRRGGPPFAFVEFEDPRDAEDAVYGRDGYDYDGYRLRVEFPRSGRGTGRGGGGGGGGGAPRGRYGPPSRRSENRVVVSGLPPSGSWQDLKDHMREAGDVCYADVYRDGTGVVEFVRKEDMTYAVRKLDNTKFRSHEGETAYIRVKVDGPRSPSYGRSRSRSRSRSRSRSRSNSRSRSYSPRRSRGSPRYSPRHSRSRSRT

With `O=C(/C=C/c1ccc(O)c(O)c1)c1ccc(O)c(O)c1O` [TN2008] the Kd [1] was 5.13 µM and the Kd [2] was 37.2 µM.
